Source: US7553105B1, “Method and compositions for treatment of subsurface contaminants” (Colorado School of Mines, priority 2005, dated 2009)
Values after ≈ are worked out from the molar mass of the structure shown. Values joined by “and” are separate entries in the source; they are usually repeats but may differ in a detail not shown here. Equal values may be shown once. Read-outs that look alike come from different tables or passages of the source. Marks after values point to notes of the source that are not given here. Blank lines part the entries; values can stand above or below the molecule they belong to.

Key:
[1] = Batch screening for compatibility of surfactants/cosolvents with KMnO4; settings: for effect of surfactant concentration on compatibility with permanganate: FIG. 1
[2] = 25° C.; cited from earlier work
[3] = maximum contaminant level, USEPA; cited from earlier work
[4] = Example 3 batch compatibility of cosolvents and surfactants with permanganate; settings: 5,000 mg/L KMnO4; 24-48 hr observation
[5] = Solubility of PCE in surfactants, co-surfactants and electrolytes versus water alone; assay type: physicochemical
Method: Co-surfactants and electrolytes serve to further enhance the solubilization capacity of any given surfactant.
Therefore use of equilibrium values in the prediction of surfactant enhanced remediation performance may result in the underestimation of remediation times and costs.
PCE concentrations were determined using a Hewlett-Packard gas chromatograph (GC) equipped with auto-ampler and electron capture detector (ECD).

[6] = Solubility in water 20° C.; assay type: physicochemical; settings: measured for this study
[7] = Batch surfactant sorption experiments; assay type: physicochemical; settings: medium-grained laboratory sand
Source text: Adsorption isotherms of ionic surfactants onto charged sites are typically approximated using a Langmuir model (Rosen, 1989).

[8] = vendor data, cited from earlier work
[9] = literature; cited from earlier work
[10] = Density of 3.5 wt % Dowfax 8390 solution; settings: 3.5 wt % solution, 23° C., average of five measurements
[11] = Interfacial tension, DuNuoy ring tensiometer; settings: 3.5 wt % Dowfax 8390 solution equilibrated with PCE, average of five measurements
[12] = 3-hour observation, 3.5 wt % surfactant + 5000 mg/L KMnO4
[13] = 24-hour observation, 3.5 wt % surfactant + 5000 mg/L KMnO4
[14] = MnO4^− loss, 3-hour observation, 3.5 wt % surfactant + 5000 mg/L KMnO4
[15] = MnO4^− loss, 24-hour observation, 3.5 wt % surfactant + 5000 mg/L KMnO4

Molecule: CC(C)=O [Acetone]
% mass loss [1]: 98%

Average MnO4^− [1, 12]: 3442 mg/L
Average MnO4^− [1, 13]: 1896 mg/L
% mass loss [1, 14]: 29%
% mass loss [1, 15]: 61%
Molecule: CCCCCCCCCCCCc1ccc(S(=O)(=O)O)cc1 [SDBS]

Molecule: c1ccc2ccccc2c1 [Napthalene (PAH), Napthalene]
Solubility in water [2]: 33 µg/mL (≈ 257 µM)
MCL [3]: 0.0002 mg/L

Molecule: Cl[C@H]1[C@H](Cl)[C@@H](Cl)[C@@H](Cl)[C@H](Cl)[C@H]1Cl [Lindane (herbicide), Lindane]
Solubility in water [2]: 7.3 µg/mL (≈ 25.1 µM)

% mass loss [1, 14]: 100%
% mass loss [1, 15]: 100%
Molecule: CCCCCCCC/C=C\CCCCCCCC(=O)OCCOCC(OCCO)C1OCC(OCCO)C1OCCO (centres unmarked) [Tween 80, polyoxyethylene (20) sorbitan monooleate]
effect of surfactant concentration on compatibility with permanganate [1]: only compatible at low residual levels with permanganate

Molecule: Cc1ccc(C)cc1 [p-Xylene]
Solubility in water [2]: 210 µg/mL (≈ 1980 µM)
MCL [3]: 10 mg/L

Molecule: Cc1ccccc1C [o-Xylene]
Solubility in water [2]: 175 µg/mL (≈ 1650 µM)

Molecule: ClC=C(Cl)Cl [Trichloroethene, trichloroethene]
MCL [3]: 0.005 mg/L

Molecule: CC(C)(C)O [tert-butanol]
% mass loss [1]: 2% and 4%
Average MnO4^− [1]: 5075 mg/L and 4986 mg/L
Relative Amount of MnO2 Solids Generated [4]: None
Solution Color [4]: Dark

Molecule: Clc1cc2c(cc1Cl)Oc1cc(Cl)c(Cl)cc1O2 [Dioxin (2,3,7,8-TCDD), 2,3,7,8-TCDD]
Solubility in water [2]: 1.9e-09 µg/mL (≈ 5.9e-09 µM)
MCL [3]: 3e-08 mg/L

Average MnO4^− [1, 12]: 4340 mg/L
Average MnO4^− [1, 13]: 4183 mg/L
% mass loss [1, 14]: 14%
% mass loss [1, 15]: 15%
Molecule: (C16 linear) Sodium diphenyl oxide sulfonate [Calfax 16L-35]

Molecule: CCCCCCCC [n-Octane]
Solubility in water [2]: 0.72 µg/mL (≈ 6.3 µM)

Molecule: c1ccccc1 [Benzene]
MCL [3]: 0.005 mg/L

compatibility with permanganate [1]: compatible with permanganate
Average MnO4^− [1, 12]: 4523 mg/L
Average MnO4^− [1, 13]: 4393 mg/L
% mass loss [1, 14]: 6%
% mass loss [1, 15]: 20%
Molecule: CCCCCCCCCCCCOS(=O)(=O)[O-].[Na+] [SDS, sodium dodecyl sulfate]

Molecule: ClC(Cl)=C(Cl)Cl [PCE, tetrachloroethene]
5% Dowfax + 3% AOT: PCE ([5]; in 5% Dowfax + 3% AOT): 31,954 mg/L
5% Dowfax + 3% AOT + 3% NaBr: PCE ([5]; in 5% Dowfax + 3% AOT + 3% NaBr): 107,284 mg/L
5% SDS + 3% AOT: PCE ([5]; in 5% SDS + 3% AOT): 21,410 mg/L
5% SDS + 3% AOT + 3% NaBr: PCE ([5]; in 5% SDS + 3% AOT + 3% NaBr): 62,700 mg/L
PCE in water only ([5]; water only): 200 mg/L
solubility [6]: 250 µg/mL (≈ 1510 µM)
MCL [3]: 0.005 mg/L

Molecule: CCc1ccccc1 [Ethylbenzene]
Solubility in water [2]: 152 µg/mL (≈ 1430 µM)
MCL [3]: 0.7 mg/L

Molecule: Clc1ccccc1 [Chlorobenzene]
Solubility in water [2]: 472 µg/mL (≈ 4190 µM)

Molecule: CCCCCCCCCC [n-Decane]
Solubility in water [2]: 0.053 µg/mL (≈ 0.372 µM)

Molecule: Sodium hexadecyl diphenyl oxide disulfonate [Dowfax 8390]
sorption to laboratory sand [7]: negligible
CMC ([8]; critical micelle concentration): 140 mg/L
HLB [8]: 78.6
sorption to aquifer materials [9]: low sorption to aquifer materials
Density [10]: 1.007^c g/cm^3
Interfacial Tension [11]: 8.5^c dyne/cm
compatibility with permanganate [1]: compatible with permanganate
Average MnO4^− [1, 12]: 4458 mg/L
Average MnO4^− [1, 13]: 3980 mg/L
effect of surfactant concentration on compatibility with permanganate [1]: not dependent on surfactant concentration
% mass loss [1, 14]: 10%
% mass loss [1, 15]: 23%
Relative Amount of MnO2 Solids Generated [4]: Few
Solution Color [4]: Dark

Molecule: c1ccc2c(c1)ccc1ccccc12 [Phenanthrene (PAH), Phenanthrene]
Solubility in water [2]: 6.2 µg/mL (≈ 34.8 µM)
MCL [3]: 0.0002 mg/L
